In US20020173538A1, “Method for sensitizing cancer cells to cancer therapies with a mevalonate-reducing compound” (priority 2000, published 2002):
Where two headings read alike, the source gives them in different places. Marks after values point to notes of the source that are not given here.

System: Hep 3B cells
Experiment: MTT cell viability assay, Hep 3B cells (serum-free DMEM)
Details: for viability at 0.005 µM / viability at 0.01 µM / viability at 0.02 µM / viability at 0.05 µM / viability at 0.1 µM / viability at 0.2 µM / viability at 0.5 µM / viability at 1 µM / IC50 / viability at 0.002 µM: Homo sapiens, Hep3B
[1] = no lovastatin 48 hr, then taxol 10 nM 48 hr
[2] = no lovastatin 72 hr, then taxol 2 nM 72 hr
[3] = no lovastatin 72 hr, then taxol 5 nM 48 hr
[4] = no lovastatin 72 hr, then taxol 5 nM 72 hr
[5] = no lovastatin 72 hr, then taxol 10 nM 72 hr

CC(=O)O[C@H]1C(=O)[C@@]2(C)[C@H]([C@H](OC(=O)c3ccccc3)[C@]3(O)C[C@H](OC(=O)[C@H](O)[C@@H](NC(=O)c4ccccc4)c4ccccc4)C(C)=C1C3(C)C)[C@]1(OC(C)=O)CO[C@@H]1C[C@@H]2O [Taxol, paclitaxel]
viability at 0.005 µM (48 h, read-out: Cell viability, taxol 5 nM, 48 hr): 91.6 ± 0.5% | viability at 0.005 µM (48 h, read-out: Cell viability, taxol 5 nM, 48 hr, Table 9): 97.5 ± 3.1% | viability at 0.01 µM (48 h, read-out: Cell viability, taxol 10 nM, 48 hr): 87.1 ± 1.5% | viability at 0.01 µM (48 h, read-out: Cell viability, taxol 10 nM, 48 hr, Table 9): 89.1 ± 3% | viability at 0.02 µM (48 h, read-out: Cell viability, taxol 20 nM, 48 hr): 85.4 ± 0.9% | viability at 0.05 µM (48 h, read-out: Cell viability, taxol 50 nM, 48 hr): 83.5 ± 0.9% | viability at 0.1 µM (48 h, read-out: Cell viability, taxol 100 nM, 48 hr): 74.9 ± 1.8% | viability at 0.2 µM (48 h, read-out: Cell viability, taxol 200 nM, 48 hr): 64.7 ± 4.6% | viability at 0.5 µM (48 h, read-out: Cell viability, taxol 500 nM, 48 hr): 56.2 ± 0.8% | viability at 1 µM (48 h, read-out: Cell viability, taxol 1000 nM, 48 hr): 55.3 ± 0.5% | IC50 (48 h, read-out: IC50 (cell viability), 48 hr, Table 8): 1119 ± 10.1 nM | IC50 (48 h, read-out: IC50 (cell viability), 48 hr, Table 9): 45.9 nM | viability at 0.002 µM (72 h, read-out: Cell viability, taxol 2 nM, 72 hr): 94 ± 3.6% | viability at 0.002 µM (72 h, read-out: Cell viability, taxol 2 nM, 72 hr, Table 9): 94 ± 3.6% | viability at 0.005 µM (72 h, read-out: Cell viability, taxol 5 nM, 72 hr): 91.7 ± 3.7% | viability at 0.005 µM (72 h, read-out: Cell viability, taxol 5 nM, 72 hr, Table 9): 91.7 ± 3.7% | viability at 0.01 µM (72 h, read-out: Cell viability, taxol 10 nM, 72 hr): 88.5 ± 2.4% | viability at 0.01 µM (72 h, read-out: Cell viability, taxol 10 nM, 72 hr, Table 9): 88.5 ± 2.4% | viability at 0.02 µM (72 h, read-out: Cell viability, taxol 20 nM, 72 hr): 85.6 ± 1.1% | viability at 0.05 µM (72 h, read-out: Cell viability, taxol 50 nM, 72 hr): 71.2 ± 4.2% | viability at 0.1 µM (72 h, read-out: Cell viability, taxol 100 nM, 72 hr): 52.7 ± 2.8% | viability at 0.2 µM (72 h, read-out: Cell viability, taxol 200 nM, 72 hr): 47 ± 1% | viability at 0.5 µM (72 h, read-out: Cell viability, taxol 500 nM, 72 hr): 32.2 ± 4.7% | viability at 1 µM (72 h, read-out: Cell viability, taxol 1000 nM, 72 hr): 24.6 ± 2.9% | IC50 (72 h, read-out: IC50 (cell viability), 72 hr, Table 8): 147 ± 14.2 nM | IC50 (72 h, read-out: IC50 (cell viability), 72 hr, Table 9): 43.5 nM | viability at 0.002 µM (96 h, read-out: Cell viability, taxol 2 nM alone, 96 hr, Table 10): 92.6 ± 1.9% | viability at 0.002 µM (96 h, read-out: Cell viability, taxol 2 nM, 96 hr): 94.1 ± 7.9% | viability at 0.005 µM (96 h, read-out: Cell viability, taxol 5 nM alone, 96 hr, Table 10): 79.5 ± 4.6% | viability at 0.005 µM (96 h, read-out: Cell viability, taxol 5 nM, 96 hr): 92.4 ± 4.8% | viability at 0.01 µM (96 h, read-out: Cell viability, taxol 10 nM alone, 96 hr, Table 10): 60.3 ± 3.4% | viability at 0.01 µM (96 h, read-out: Cell viability, taxol 10 nM, 96 hr): 82.3 ± 6.6% | IC50 (96 h, read-out: IC50 (cell viability), 96 hr): 28.2 nM | viability at 0.002 µM (120 h, read-out: Cell viability, taxol 2 nM, 120 hr): 94.2 ± 2.5% | viability at 0.005 µM (120 h, read-out: Cell viability, taxol 5 nM, 120 hr): 82.7 ± 3.7% | viability at 0.01 µM (120 h, read-out: Cell viability, taxol 10 nM, 120 hr): 71.9 ± 4.6% | IC50 (120 h, read-out: IC50 (cell viability), 120 hr): 17.8 nM | Cell viability (no lovastatin 48 hr, then taxol 2 nM 48 hr): 102.4 ± 4.7^a % of control | Ratio, inhibition (%) Hep 3B/inhibition (%) Hep G2 (no lovastatin 48 hr, then taxol 5 nM 48 hr): 0.3*** | Cell viability [1]: 76.3 ± 1.3^c % of control | Ratio, inhibition (%) Hep 3B/inhibition (%) Hep G2 [1]: 0.6*** | Ratio, inhibition (%) Hep 3B/inhibition (%) Hep G2 (no lovastatin 72 hr, then taxol 2 nM 48 hr): 0.4*** | Cell viability [2]: 91.1 ± 1.1^b % of control | Ratio, inhibition (%) Hep 3B/inhibition (%) Hep G2 [2]: 0.4* | Cell viability [3]: 86.9 ± 1.3^b % of control | Ratio, inhibition (%) Hep 3B/inhibition (%) Hep G2 [3]: 0.4*** | Cell viability [4]: 96.5 ± 0.6^a % of control | Ratio, inhibition (%) Hep 3B/inhibition (%) Hep G2 [4]: 0.1*** | Ratio, inhibition (%) Hep 3B/inhibition (%) Hep G2 (no lovastatin 72 hr, then taxol 10 nM 48 hr): 0.4** | Cell viability [5]: 78.0 ± 0.4^c % of control | Ratio, inhibition (%) Hep 3B/inhibition (%) Hep G2 [5]: 0.6** | Ratio, inhibition (%) Hep 3B/inhibition (%) Hep G2 (taxol 2 nM alone, 96 hr, Table 10): 0.3** | Ratio, inhibition (%) Hep 3B/inhibition (%) Hep G2 (taxol 2 nM, 48 hr): 1.3* | Ratio, inhibition (%) Hep 3B/inhibition (%) Hep G2 (taxol 2 nM, 72 hr): 0.6* | Ratio, inhibition (%) Hep 3B/inhibition (%) Hep G2 (taxol 5 nM alone, 96 hr, Table 10): 0.4** | Ratio, inhibition (%) Hep 3B/inhibition (%) Hep G2 (taxol 5 nM, 48 hr): 0.3** | Ratio, inhibition (%) Hep 3B/inhibition (%) Hep G2 (taxol 5 nM, 72 hr): 0.2** | Ratio, inhibition (%) Hep 3B/inhibition (%) Hep G2 (taxol 10 nM alone, 96 hr, Table 10): 0.5*** | Ratio, inhibition (%) Hep 3B/inhibition (%) Hep G2 (taxol 10 nM, 48 hr): 0.4*** | Ratio, inhibition (%) Hep 3B/inhibition (%) Hep G2 (taxol 10 nM, 72 hr): 0.2*** | Ratio, inhibition (%) Hep 3B/inhibition (%) Hep G2 (taxol 20 nM, 48 hr): 0.3*** | Ratio, inhibition (%) Hep 3B/inhibition (%) Hep G2 (taxol 20 nM, 72 hr): 0.2*** | Ratio, inhibition (%) Hep 3B/inhibition (%) Hep G2 (taxol 50 nM, 48 hr): 0.3*** | Ratio, inhibition (%) Hep 3B/inhibition (%) Hep G2 (taxol 50 nM, 72 hr): 0.4*** | Ratio, inhibition (%) Hep 3B/inhibition (%) Hep G2 (taxol 100 nM, 48 hr): 0.4** | Ratio, inhibition (%) Hep 3B/inhibition (%) Hep G2 (taxol 100 nM, 72 hr): 0.6** | Ratio, inhibition (%) Hep 3B/inhibition (%) Hep G2 (taxol 200 nM, 48 hr): 0.5** | Ratio, inhibition (%) Hep 3B/inhibition (%) Hep G2 (taxol 200 nM, 72 hr): 0.6** | Ratio, inhibition (%) Hep 3B/inhibition (%) Hep G2 (taxol 500 nM, 48 hr): 0.6** | Ratio, inhibition (%) Hep 3B/inhibition (%) Hep G2 (taxol 500 nM, 72 hr): 0.8** | Ratio, inhibition (%) Hep 3B/inhibition (%) Hep G2 (taxol 1000 nM, 48 hr): 0.5** | Ratio, inhibition (%) Hep 3B/inhibition (%) Hep G2 (taxol 1000 nM, 72 hr): 0.8**
